Among the data in patent publication US20250120967A1, “TYROSINE KINASES INHIBITORS AND USES THEREOF” (GREAT NOVEL THERAPEUTICS BIOTECH & MEDICALS CORPORATION, priority 2023, published 2025) are inhibition and percent inhibition values, retold here.

Molecules are shown by their SMILES.

Assay in all cases: Tyrosine kinase inhibition assay
Holding throughout (type): biochemical

One experiment concerns the target ALK (Homo sapiens, UniProt Q9UM73). The note with it: single concentration 1.0 μM, read-out: percent inhibition. A digest of the protocol: (§1)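 Values are percent inhibition at 1.0 μM compound, with inhibition above 80% defined as a hit. Peptide substrate phosphorylation was assessed by Z′-LYTE at apparent-Km ATP in HEPES pH 7.5 buffer containing MgCl2, EGTA and BRIJ-35.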

The next experiment deals with T1, EPHA1 (Homo sapiens, UniProt P21709).
T1 sequence (P21709 26-976): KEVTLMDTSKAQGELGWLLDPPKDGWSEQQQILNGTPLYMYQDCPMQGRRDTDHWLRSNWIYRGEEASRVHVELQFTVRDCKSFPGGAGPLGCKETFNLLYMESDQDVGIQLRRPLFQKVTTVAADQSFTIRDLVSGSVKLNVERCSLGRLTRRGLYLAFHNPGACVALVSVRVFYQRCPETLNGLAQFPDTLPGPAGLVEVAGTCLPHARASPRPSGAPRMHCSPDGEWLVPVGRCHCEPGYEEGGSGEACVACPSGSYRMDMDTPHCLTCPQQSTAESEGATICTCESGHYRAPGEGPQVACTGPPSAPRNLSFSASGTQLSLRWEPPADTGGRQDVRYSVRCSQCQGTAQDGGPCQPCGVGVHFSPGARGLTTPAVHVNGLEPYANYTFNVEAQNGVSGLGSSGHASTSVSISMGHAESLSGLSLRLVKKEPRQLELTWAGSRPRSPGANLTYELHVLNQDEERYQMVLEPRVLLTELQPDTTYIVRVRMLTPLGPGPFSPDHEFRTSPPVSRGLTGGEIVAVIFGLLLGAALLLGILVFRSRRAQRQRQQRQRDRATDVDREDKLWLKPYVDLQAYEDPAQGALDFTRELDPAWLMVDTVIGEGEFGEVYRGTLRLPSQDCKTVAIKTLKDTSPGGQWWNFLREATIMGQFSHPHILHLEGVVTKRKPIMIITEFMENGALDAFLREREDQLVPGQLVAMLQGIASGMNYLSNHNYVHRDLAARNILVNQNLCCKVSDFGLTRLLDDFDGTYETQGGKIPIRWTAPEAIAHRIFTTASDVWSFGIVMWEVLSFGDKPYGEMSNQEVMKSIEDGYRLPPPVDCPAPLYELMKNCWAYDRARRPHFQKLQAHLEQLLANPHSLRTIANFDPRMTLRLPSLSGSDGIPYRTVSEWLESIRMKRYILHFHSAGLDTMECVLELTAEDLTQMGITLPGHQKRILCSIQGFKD
The note with it: single concentration 1.0 μM, read-out: percent inhibition. The method, boiled down: as §1

The target in another experiment is EPHA4 (Homo sapiens, UniProt P54764). The note with it: single concentration 1.0 μM, read-out: percent inhibition. A digest of the protocol:
as §1

In another experiment the target is FGFR3 (Homo sapiens, UniProt P22607). The note with it: single concentration 1.0 μM, read-out: percent inhibition. A digest of the protocol: as §1
The target in the next experiment is T2, ITK (Homo sapiens, UniProt Q08881).
T2 sequence (Q08881 1-620): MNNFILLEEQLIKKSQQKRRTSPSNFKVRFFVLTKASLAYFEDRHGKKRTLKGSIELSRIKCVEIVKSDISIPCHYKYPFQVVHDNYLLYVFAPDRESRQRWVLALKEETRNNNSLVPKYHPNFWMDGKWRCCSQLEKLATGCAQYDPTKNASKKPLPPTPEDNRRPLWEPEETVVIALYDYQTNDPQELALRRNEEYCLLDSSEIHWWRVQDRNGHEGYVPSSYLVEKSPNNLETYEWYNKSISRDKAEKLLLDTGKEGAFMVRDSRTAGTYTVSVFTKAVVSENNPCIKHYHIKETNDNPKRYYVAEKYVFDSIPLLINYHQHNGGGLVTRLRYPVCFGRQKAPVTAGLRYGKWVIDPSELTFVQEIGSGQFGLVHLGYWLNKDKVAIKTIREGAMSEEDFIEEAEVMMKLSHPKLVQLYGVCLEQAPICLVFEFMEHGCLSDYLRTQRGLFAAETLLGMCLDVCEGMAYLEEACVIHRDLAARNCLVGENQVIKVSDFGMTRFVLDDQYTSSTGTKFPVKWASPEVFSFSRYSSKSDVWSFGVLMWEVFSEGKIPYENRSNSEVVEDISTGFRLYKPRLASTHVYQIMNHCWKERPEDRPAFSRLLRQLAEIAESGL
The note with it: single concentration 1.0 μM, read-out: percent inhibition. A digest of the protocol: as §1

In a further experiment the target is PEAK1 (Homo sapiens, UniProt Q9H792). The note with it: single concentration 1.0 μM, read-out: percent inhibition. A digest of the protocol:
as §1

The next experiment addresses PIK3CG (p110 gamma) (Homo sapiens, UniProt P48736). The note with it: single concentration 1.0 μM, read-out: percent inhibition. The method, boiled down: as §1
The next experiment addresses PTK2B (FAK2) (Homo sapiens, UniProt Q14289). The note with it: single concentration 1.0 μM, read-out: percent inhibition. The method, boiled down: as §1
The test system of another experiment is FYN. The note with it: single concentration 1.0 μM. A digest of the protocol:
as §1

Sequence of ALK (Q9UM73 19-1620): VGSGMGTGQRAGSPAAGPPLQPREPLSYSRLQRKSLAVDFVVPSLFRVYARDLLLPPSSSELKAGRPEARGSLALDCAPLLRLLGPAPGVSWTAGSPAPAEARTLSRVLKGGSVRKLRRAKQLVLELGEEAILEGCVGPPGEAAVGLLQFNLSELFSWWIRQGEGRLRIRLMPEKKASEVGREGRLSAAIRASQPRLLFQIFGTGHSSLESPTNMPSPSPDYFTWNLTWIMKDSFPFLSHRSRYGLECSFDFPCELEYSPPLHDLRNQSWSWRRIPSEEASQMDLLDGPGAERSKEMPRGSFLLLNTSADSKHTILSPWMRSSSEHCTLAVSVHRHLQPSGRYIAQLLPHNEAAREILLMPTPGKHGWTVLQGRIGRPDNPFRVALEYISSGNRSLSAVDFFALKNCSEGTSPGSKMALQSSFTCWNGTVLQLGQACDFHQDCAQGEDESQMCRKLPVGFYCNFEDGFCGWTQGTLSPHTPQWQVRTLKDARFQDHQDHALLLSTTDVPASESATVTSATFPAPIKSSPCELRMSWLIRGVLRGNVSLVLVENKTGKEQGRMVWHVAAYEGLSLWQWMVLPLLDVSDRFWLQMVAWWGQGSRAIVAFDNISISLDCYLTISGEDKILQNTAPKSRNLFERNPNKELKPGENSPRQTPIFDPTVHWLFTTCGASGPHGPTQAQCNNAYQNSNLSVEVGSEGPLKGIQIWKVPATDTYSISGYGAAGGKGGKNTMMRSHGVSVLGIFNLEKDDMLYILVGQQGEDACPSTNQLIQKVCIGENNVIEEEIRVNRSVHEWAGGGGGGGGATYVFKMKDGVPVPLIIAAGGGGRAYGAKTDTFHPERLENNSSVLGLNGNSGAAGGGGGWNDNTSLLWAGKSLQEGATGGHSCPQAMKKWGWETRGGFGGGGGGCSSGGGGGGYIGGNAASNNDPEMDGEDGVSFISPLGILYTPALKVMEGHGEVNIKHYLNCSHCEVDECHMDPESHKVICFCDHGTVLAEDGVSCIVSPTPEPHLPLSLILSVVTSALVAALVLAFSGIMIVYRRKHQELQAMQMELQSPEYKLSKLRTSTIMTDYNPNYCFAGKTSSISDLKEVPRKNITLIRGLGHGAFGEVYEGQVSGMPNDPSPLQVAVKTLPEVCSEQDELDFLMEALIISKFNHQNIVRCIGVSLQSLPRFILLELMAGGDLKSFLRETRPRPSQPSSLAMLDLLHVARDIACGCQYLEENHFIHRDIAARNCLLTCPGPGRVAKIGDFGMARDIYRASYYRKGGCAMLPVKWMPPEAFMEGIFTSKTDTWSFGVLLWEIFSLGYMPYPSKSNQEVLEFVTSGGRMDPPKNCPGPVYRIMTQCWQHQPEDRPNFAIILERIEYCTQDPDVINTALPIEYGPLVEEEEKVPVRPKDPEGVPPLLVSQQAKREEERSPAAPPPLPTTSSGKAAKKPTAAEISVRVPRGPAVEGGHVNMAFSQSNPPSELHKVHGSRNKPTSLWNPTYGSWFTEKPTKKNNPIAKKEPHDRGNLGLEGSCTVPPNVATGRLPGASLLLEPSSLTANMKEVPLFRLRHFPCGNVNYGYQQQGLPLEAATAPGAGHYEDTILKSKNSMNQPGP
Sequence of PTK2B (FAK2) (Q14289 whole entry): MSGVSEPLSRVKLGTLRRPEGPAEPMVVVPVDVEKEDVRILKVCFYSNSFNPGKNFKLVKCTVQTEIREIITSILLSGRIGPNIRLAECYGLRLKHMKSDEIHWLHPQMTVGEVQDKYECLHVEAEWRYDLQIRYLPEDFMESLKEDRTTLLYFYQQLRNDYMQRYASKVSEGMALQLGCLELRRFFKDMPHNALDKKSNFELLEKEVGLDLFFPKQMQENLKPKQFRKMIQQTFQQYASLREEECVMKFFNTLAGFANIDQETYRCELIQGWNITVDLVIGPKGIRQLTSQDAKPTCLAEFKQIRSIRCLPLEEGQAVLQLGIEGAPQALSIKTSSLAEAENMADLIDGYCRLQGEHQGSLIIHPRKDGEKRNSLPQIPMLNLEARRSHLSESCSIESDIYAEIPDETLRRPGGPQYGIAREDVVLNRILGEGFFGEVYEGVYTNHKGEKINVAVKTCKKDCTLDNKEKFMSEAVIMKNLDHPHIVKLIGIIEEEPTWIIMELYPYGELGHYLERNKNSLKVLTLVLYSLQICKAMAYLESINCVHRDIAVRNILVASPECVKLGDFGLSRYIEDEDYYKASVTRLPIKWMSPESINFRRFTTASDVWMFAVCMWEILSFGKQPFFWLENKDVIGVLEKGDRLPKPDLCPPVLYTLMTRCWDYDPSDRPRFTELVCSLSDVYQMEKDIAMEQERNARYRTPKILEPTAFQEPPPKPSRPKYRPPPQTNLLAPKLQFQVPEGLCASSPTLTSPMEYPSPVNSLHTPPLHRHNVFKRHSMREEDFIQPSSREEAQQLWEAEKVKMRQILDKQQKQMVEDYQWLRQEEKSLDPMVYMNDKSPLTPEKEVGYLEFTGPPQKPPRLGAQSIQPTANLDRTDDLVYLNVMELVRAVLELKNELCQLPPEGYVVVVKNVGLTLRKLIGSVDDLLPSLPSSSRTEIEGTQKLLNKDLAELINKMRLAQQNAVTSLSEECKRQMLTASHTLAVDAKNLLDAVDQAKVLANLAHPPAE
Sequence of FGFR3 (P22607 23-806): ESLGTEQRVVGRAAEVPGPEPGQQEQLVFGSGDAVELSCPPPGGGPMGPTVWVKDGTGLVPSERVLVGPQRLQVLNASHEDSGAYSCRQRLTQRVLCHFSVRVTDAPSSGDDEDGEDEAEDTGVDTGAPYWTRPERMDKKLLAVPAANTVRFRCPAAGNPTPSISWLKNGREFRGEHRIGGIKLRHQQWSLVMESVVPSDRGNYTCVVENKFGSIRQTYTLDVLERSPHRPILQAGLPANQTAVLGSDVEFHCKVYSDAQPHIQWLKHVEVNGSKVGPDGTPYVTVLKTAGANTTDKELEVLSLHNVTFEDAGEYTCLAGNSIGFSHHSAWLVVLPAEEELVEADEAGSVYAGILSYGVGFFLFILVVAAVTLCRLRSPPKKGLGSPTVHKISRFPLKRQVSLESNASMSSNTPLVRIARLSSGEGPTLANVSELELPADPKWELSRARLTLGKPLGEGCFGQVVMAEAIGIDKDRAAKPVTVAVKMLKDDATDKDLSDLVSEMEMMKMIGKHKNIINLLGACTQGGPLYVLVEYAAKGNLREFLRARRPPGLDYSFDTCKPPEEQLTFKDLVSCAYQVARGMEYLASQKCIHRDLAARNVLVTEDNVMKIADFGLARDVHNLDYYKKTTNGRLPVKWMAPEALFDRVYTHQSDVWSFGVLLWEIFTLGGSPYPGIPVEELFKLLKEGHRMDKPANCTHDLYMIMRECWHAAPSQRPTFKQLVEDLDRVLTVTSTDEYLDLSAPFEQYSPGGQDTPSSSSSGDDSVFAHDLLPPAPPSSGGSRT
Sequence of PIK3CG (p110 gamma) (P48736 whole entry): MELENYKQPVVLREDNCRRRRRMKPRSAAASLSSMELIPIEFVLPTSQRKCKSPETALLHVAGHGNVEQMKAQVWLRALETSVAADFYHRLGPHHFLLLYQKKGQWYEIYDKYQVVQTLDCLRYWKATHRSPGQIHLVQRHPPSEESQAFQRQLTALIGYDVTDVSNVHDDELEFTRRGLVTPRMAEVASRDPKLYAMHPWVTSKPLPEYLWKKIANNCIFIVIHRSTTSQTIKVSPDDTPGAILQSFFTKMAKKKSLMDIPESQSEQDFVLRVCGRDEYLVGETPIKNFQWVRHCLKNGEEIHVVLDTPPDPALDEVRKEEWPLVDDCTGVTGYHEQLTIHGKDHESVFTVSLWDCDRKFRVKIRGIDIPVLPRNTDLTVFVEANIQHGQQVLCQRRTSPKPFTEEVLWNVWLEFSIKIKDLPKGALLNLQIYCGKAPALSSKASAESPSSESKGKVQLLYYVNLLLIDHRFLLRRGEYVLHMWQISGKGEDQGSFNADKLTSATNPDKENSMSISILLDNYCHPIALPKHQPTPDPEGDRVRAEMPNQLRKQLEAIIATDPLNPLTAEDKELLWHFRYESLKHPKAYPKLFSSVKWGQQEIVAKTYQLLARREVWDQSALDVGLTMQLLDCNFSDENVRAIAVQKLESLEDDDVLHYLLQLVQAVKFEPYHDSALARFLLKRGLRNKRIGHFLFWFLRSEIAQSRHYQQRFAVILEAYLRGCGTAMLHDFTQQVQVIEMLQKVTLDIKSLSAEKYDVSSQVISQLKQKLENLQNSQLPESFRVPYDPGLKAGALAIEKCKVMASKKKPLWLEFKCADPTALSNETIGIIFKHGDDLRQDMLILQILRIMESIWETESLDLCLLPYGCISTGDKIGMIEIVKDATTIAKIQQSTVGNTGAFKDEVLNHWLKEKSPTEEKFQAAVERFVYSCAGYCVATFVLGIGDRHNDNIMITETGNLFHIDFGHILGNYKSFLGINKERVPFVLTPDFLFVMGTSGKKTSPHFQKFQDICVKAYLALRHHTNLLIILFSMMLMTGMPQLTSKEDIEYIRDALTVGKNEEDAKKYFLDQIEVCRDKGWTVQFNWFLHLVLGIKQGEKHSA

In general, inhibition refers to the change of the read-out against control, counted positive when it falls. Take `COc1cc2nccc(Oc3ccc(NC(=O)C4(C(=O)Nc5ccc(F)cc5)CC4)cc3)c2cc1OC` [Cabozantinib, reference compound]: the inhibition at 1 µM on ALK amounted to 28%; at EPHA1 it was 74%; on EPHA4 it was 100%; at FGFR3, 16%; on ITK, 15%; at PEAK1 it was 85%. Also, the inhibition at 1 µM amounted to 14% at PIK3CG (p110 gamma) and 71% on PTK2B (FAK2).

Regarding `COc1cc2nccc(Oc3ccc(NC(=O)C4(NC(=O)c5ccc(F)cc5)CC4)cc3F)c2cc1OC` [Cbo-02, N-(1-((4-((6,7-diMethoxyquinolin-4-yl)oxy)-3-fluorophenyl)carbamoyl)cyclopropyl)-4-fluorobenzamide], the inhibition at 1 µM came out at 20% at ALK; 29% on EPHA1; 79% on EPHA4; 4% on FGFR3; 8% at ITK; 38% on PEAK1. In addition, the values for the inhibition at 1 µM at PIK3CG (p110 gamma) and on PTK2B (FAK2) were 4% and 9%, respectively. This compound registered a percent inhibition in the experiment with FYN of 16%.

On to `COc1cc2nccc(Oc3ccc(NC(=O)C4(NC(=O)c5ccc(F)cc5)CC4)cc3F)c2cc1Oc1ccc(N)cc1F` [Cbo-10], for which the inhibition at 1 µM on ALK was 36%; at EPHA1, 84%; on EPHA4 it was 91%; at FGFR3, 19%; at ITK it was 25%; at PEAK1, 55%. The inhibition at 1 µM at PIK3CG (p110 gamma) amounted to 9%; at PTK2B (FAK2), 56%. In the experiment with FYN, the percent inhibition stood at 35%.

Consider `COc1cc2nccc(Oc3ccc(NC(=O)C4(NC(=O)c5ccc(F)cc5)CC4)cc3F)c2cc1Oc1c(F)cc(N)cc1F` [Cbo-14], for which the inhibition at 1 µM on ALK was 32%; on EPHA1, 80%; at EPHA4, 89%; on FGFR3, 19%; at ITK, 28%; on PEAK1, 64%. Also, the inhibition at 1 µM at PIK3CG (p110 gamma) is 6%; at PTK2B (FAK2), 54%. In the experiment on FYN, the percent inhibition is recorded as 48%.

In the case of `COc1cc2nccc(Oc3ccc(NC(=O)C4(C(=O)Nc5ccc(F)cc5)CC4)cc3F)c2cc1Oc1ccc(N)cc1F` [Cbo-23], the inhibition at 1 µM at ALK was 78%; at EPHA1, 96%; on EPHA4, 100%; at FGFR3 it was 13%; at ITK it was 54%; at PIK3CG (p110 gamma), -7%. For the same compound, at PTK2B (FAK2), the inhibition at 1 µM came out at 100%. In the experiment with FYN, this compound came in with a percent inhibition of 51%.
